Experimental data reported in patent publication US20230108906A1, “SUBSTITUTED BICYCLIC AND TRICYCLIC UREAS AND AMIDES, ANALOGUES THEREOF, AND METHODS USING SAME” (Arbutus Biopharma Corporation, priority 2019, published 2023).
pEC50: −log10 of the molar value.

tested on: HBV rcDNA in HepDE19 cells; assay: HepDE19 assay with bDNA quantitation of HBV rcDNA; format: cell-based, hepatitis B virus (HBV); details: Hepatitis B virus, HepDE19, 168 h, inhibition of rcDNA formation in HepDE19 cells (HepG2 derived), Tet-free medium, 7 day incubation, Quantigene 2.0 bDNA readout, top concentration 25 μM; read-out: DE-19bDNA EC50
Procedure, shortened: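 Cytotoxicity run on replicate plates (5,000 cells/well, 4 days, ATP luminescence, CC50), while antiviral plates (50,000 cells/well) received compound for 7 days after tetracycline withdrawal to induce HBV replication. Top dose 25 μM, 8 points, 0.5% DMSO; rcDNA by branched-DNA assay, % inhibition fitted (4-parameter) for EC50 and EC90.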

SMILES | pEC50
N#Cc1cc(NC(=O)N[C@@H]2COCc3[nH]c(=O)c4cc(F)c(F)cc4c32)ccc1F (single isomer, unassigned) [Compound 135] | 7.30
CN(C(=O)Nc1ccc(F)c(C(F)F)c1)C1COCc2[nH]c(=O)c3cc(F)ccc3c21 (single isomer, unassigned) [Compound 123, 3-(3-(Difluoromethyl)-4-fluorophenyl)-1-(8-fluoro-6-oxo-1,4,5,6-tetrahydro-2H-pyrano[3,4-c]isoquinolin-1-yl)-1-methylurea] | 6.25
CN(C(=O)Nc1ccc(F)c(Cl)c1)C1COCc2[nH]c(=O)c3cc(F)cc(F)c3c21 (stereo not shown) [Compound 25, 3-(3-Chloro-4-fluorophenyl)-1-(8,10-difluoro-6-oxo-1,4,5,6-tetrahydro-2H-pyrano[3,4-c]isoquinolin-1-yl)-1-methylurea] | 6.54
CCN(C(=O)Nc1ccc(F)c(Cl)c1)C1COCc2[nH]c(=O)c3cc(F)ccc3c21 (stereo not shown) [Compound 44, 3-(3-Chloro-4-fluorophenyl)-1-ethyl-1-(8-fluoro-6-oxo-1,4,5,6-tetrahydro-2H-pyrano[3,4-c]isoquinolin-1-yl)urea] | 8.00
CN(C(=O)Nc1ccc(F)c(Cl)c1)C1COCc2[nH]c(=O)c3sccc3c21 (stereo not shown) [Compound 95, 3-(3-Chloro-4-fluorophenyl)-1-methyl-1-(6-oxo-1,4,5,6-tetrahydro-2H-pyrano[3,4-b]thieno[3,2-d]pyridin-1-yl)urea] | 7.52
CN(C(=O)Nc1ccc(F)c(Cl)c1)C1COCc2[nH]c(=O)c3cc(F)c(F)cc3c21 (racemic) [Compound 24, 3-(3-Chloro-4-fluorophenyl)-1-(8,9-difluoro-6-oxo-1,4,5,6-tetrahydro-2H-pyrano[3,4-c]isoquinolin-1-yl)-1-methylurea] | 8.00
O=C(Nc1ccc(F)c(Cl)c1)N(CCCO)C1CCc2[nH]c(=O)c3ccccc3c21 (stereo not shown) [Compound 14, 3-(3-Chloro-4-fluorophenyl)-1-(3-hydroxypropyl)-1-(5-oxo-2,3,4,5-tetrahydro-1H-cyclopenta[c]isoquinolin-1-yl)urea] | 7.00
CN(C(=O)Nc1ccc(F)c(Cl)c1)C1COCc2[nH]c(=O)c3cc(C#N)ccc3c21 (stereo not shown) [Compound 89, 3-(3-Chloro-4-fluorophenyl)-1-(8-cyano-6-oxo-1,4,5,6-tetrahydro-2H-pyrano[3,4-c]isoquinolin-1-yl)-1-methylurea] | 5.96
CC(C)CN(C(=O)Nc1ccc(F)c(Cl)c1)C1COCc2[nH]c(=O)c3ccccc3c21 (stereo not shown) [Compound 30, 3-(3-Chloro-4-fluorophenyl)-1-isobutyl-1-(6-oxo-1,4,5,6-tetrahydro-2H-pyrano[3,4-c]isoquinolin-1-yl)urea] | 7.70
Cc1cc(NC(=O)N(C)C2COCc3[nH]c(=O)c4cc(F)ccc4c32)ccc1F (stereo not shown) [Compound 57, 3-(4-Fluoro-3-methylphenyl)-1-(8-fluoro-6-oxo-1,4,5,6-tetrahydro-2H-pyrano[3,4-c]isoquinolin-1-yl)-1-methylurea] | 8.00
O=C(Nc1ccc(F)c(Cl)c1)N(CCCO)C1CCCc2[nH]c(=O)c3ccccc3c21 (stereo not shown) [Compound 7, 3-(3-Chloro-4-fluorophenyl)-1-(3-hydroxypropyl)-1-(6-oxo-1,2,3,4,5,6-hexahydrophenanthridin-1-yl)urea] | 6.12

same assay, conditions: inhibition of rcDNA formation in HepDE19 cells (HepG2 derived), Tet-free medium, 7 day incubation, Quantigene 2.0 bDNA readout, top concentration 25 μM; read-out: DE-19bDNA EC50

SMILES | pEC50
CN(C(=O)Nc1ccc(F)c(Cl)c1)C1CN(CCO)Cc2[nH]c(=O)c3cc(F)ccc3c21 (single isomer, unassigned) [Compound 169, 3-(3-Chloro-4-fluorophenyl)-1-(8-fluoro-3-(2-hydroxyethyl)-6-oxo-1,2,3,4,5,6-hexahydrobenzo[c][1,7]naphthyridin-1-yl)-1-methylurea] | 5.18
CS(=O)(=O)CCN(C(=O)Nc1ccc(F)c(Cl)c1)C1COCc2[nH]c(=O)c3cc(F)c(F)cc3c21 (single isomer, unassigned) [Compound 140, 3-(3-Chloro-4-fluorophenyl)-1-(8,9-difluoro-6-oxo-1,4,5,6-tetrahydro-2H-pyrano[3,4-c]isoquinolin-1-yl)-1-(2-(methylsulfonyl)ethyl)urea] | 8.00
CN(C(=O)N1Cc2ccc(Cl)cc2C1)C1CNCc2[nH]c(=O)c3cc(F)c(F)cc3c21 (single isomer, unassigned) [Compound 227, 5-Chloro-N-(8,9-difluoro-6-oxo-1,2,3,4,5,6-hexahydrobenzo[c][1,7]naphthyridin-1-yl)-N-methylisoindoline-2-carboxamide] | 4.92
CN(C(=O)N1Cc2ccccc2C1)C1CNCc2[nH]c(=O)c3cc(F)c(F)cc3c21 (single isomer, unassigned) [Compound 223, N-(8,9-Difluoro-6-oxo-1,2,3,4,5,6-hexahydrobenzo[c][1,7]naphthyridin-1-yl)-N-methylisoindoline-2-carboxamide] | 5.64
CN(C(=O)Nc1ccc(F)c(Cl)c1)C1CCCc2[nH]c(=O)c3c(c21)CCOC3 (single isomer, unassigned) [Compound 61, 3-(3-Chloro-4-fluorophenyl)-1-methyl-1-(5-oxo-1,4,5,6,7,8,9,10-octahydro-2H-pyrano[3,4-c]quinolin-10-yl)urea] | 5.29
CN(C(=O)Nc1ccc(F)c(Cl)c1)C1CCCc2[nH]c(=O)c3ccccc3c21 (single isomer, unassigned) [Compound 16, 3-(3-Chloro-4-fluorophenyl)-1-methyl-1-(6-oxo-1,2,3,4,5,6-hexahydrophenanthridin-1-yl)urea] | 6.12
CC(=O)N1Cc2[nH]c(=O)c3cc(F)c(F)cc3c2C(N(C)C(=O)Nc2ccc(F)c(Cl)c2)C1 (single isomer, unassigned) [Compound 160, 1-(3-Acetyl-8,9-difluoro-6-oxo-1,2,3,4,5,6-hexahydrobenzo[c][1,7]naphthyridin-1-yl)-3-(3-chloro-4-fluorophenyl)-1-methylurea] | 6.09
CN(C(=O)Nc1ccc(F)c(Cl)c1)C1COCc2[nH]c(=O)c3c(c21)COCC3 (single isomer, unassigned) [Compound 84, 3-(3-Chloro-4-fluorophenyl)-1-methyl-1-(5-oxo-4,5,6,7,9,10-hexahydro-1H,3H-dipyrano[3,4-b:3′,4′-d]pyridin-10-yl)urea] | 6.08
CN(C(=O)Nc1ccc(F)c(C#N)c1)C1CNCc2[nH]c(=O)c3cc(F)ccc3c21 (single isomer, unassigned) [Compound 162, 3-(3-Cyano-4-fluorophenyl)-1-(8-fluoro-6-oxo-1,2,3,4,5,6-hexahydrobenzo[c][1,7]naphthyridin-1-yl)-1-methylurea] | 6.77
CN(C(=O)Nc1ccc(F)c(Cl)c1)C1CSCc2[nH]c(=O)c3cc(F)ccc3c21 (single isomer, unassigned) [Compound 184, 3-(3-Chloro-4-fluorophenyl)-1-(8-fluoro-6-oxo-1,4,5,6-tetrahydro-2H-thiopyrano[3,4-c]isoquinoIin-1-yl)-1-methylurea] | 7.52

same assay, conditions: read-out: DE-19bDNA EC50; inhibition of rcDNA formation in HepDE19 cells (HepG2 derived), Tet-free medium, 7 day incubation, Quantigene 2.0 bDNA readout, top concentration 25 μM

SMILES | pEC50
CN(C(=O)Nc1ccccc1)C1COCc2[nH]c(=O)c3cc(F)c(F)cc3c21 (single isomer, unassigned) [Compound 102, 1-(8,9-Difluoro-6-oxo-1,4,5,6-tetrahydro-2H-pyrano[3,4-c]isoquinolin-1-yl)-1-methyl-3-phenylurea] | 7.52
